The data set is described as follows: Saturation level of T in saline (T powder slurry). In kind it is physicochemical. On the procedure: The T powder was produced as a 2.5 mg/mL slurry in buffer to reach the near saturation point of T in the buffer. Samples of the T powder slurry were removed from only the top layer of the slurry fluid to avoid aspirating T particles in the slurry that may have precipitated at to the bottom. T pellets were collected directly from the vials in which they were stored. The 83 mg hydrogels containing 30% T were collected from Dulbecco's PBS buffer, rinsed, and dried. Each of the collected samples was then placed in a separate container of incubation media (saline in this instance) for the release studies.
Samples of the respective incubation media for the T powder, pelleted T, and hydrogel encapsulated T were collected at 4, 24, and 48 hours, with 2-3 replicates from each experimental group at each collection time. All collected samples were then diluted before assaying for released T in the incubation media. Initially, the samples collected at 4 hours were diluted 400-fold, while the samples collected at 24 and 48 hours were diluted 1600-fold. […] As a result, dilution testing was performed at dilutions of 1200, 1600, 1800, 2200, 2400, and 3000-fold. […]

Molecules are shown by their SMILES.

Data on 1 molecule can be found in patent US12708605B2, “Method of administering a hormone encapsulated by a hydrogel with a dual chamber syringe” (VITALTE LIFESCIENCES INC., priority 2024, dated 2026).

As to `C[C@]12CC[C@H]3[C@@H](CCC4=CC(=O)CC[C@@]43C)[C@@H]1CC[C@@H]2O` [T powder, Testosterone], the “approximate saturation level of T in saline” value is “about 1.5 mg/L”.
